In US9522187B2, “Cancer therapy using beta glucan and antibodies” (University of Louisville Research Foundation, Inc., priority 2002, dated 2016):
Values belong to the substance of their own block, whether it stands above or below them.

What was measured:
[1] = test system: human LAN-1 neuroblastoma; experiment: Oral barley β-glucan with antibody against LAN-1 neuroblastoma xenograft (FIG. 10); type: in vivo, athymic BALB/c mice; conditions: β-glucan daily by gavage for 21-29 days; 3F8 i.v. twice weekly
Description: Neuroblastoma cells were xenografted subcutaneously in athymic BALB/c mice. Treatment started in groups of 5 mice, 2 weeks after tumor implantation when visible tumors reached 0.7-0.8 cm in diameter. The β-glucan groups was treated with […] daily by gavage for a total of 21-29 days. Monoclonal antibodies (3F8) were administered i.v. at a dose of […] twice weekly. Tumor size was measured from the first day of treatment, and the product of the largest diameter was expressed as a percentage of the size on day zero.

[2] = molecular target: T1, CR3 (Homo sapiens, UniProt P11215); experiment: Inhibition of SZP-FITC staining of neutrophils by unlabeled polysaccharides; type: binding; conditions: compared with soluble yeast MP β-glucan or SZP
T1 construct: endogenous in cells
Description: Neutrophils were incubated at 4° C. with graded concentrations of β-glucans (SZP, laminarin, MP β-glucan, barley β-glucan, and lentinan), α-mannan or dextran for 15 minutes and then stained by addition of 1.0 mg/ml of SZP-FITC and incubated for an additional 15 minutes at 4° C. Percentage inhibition was then compared with polysaccharide concentration. […] Similar results were obtained when the same unlabeled polysaccharides were examined for inhibition of laminarin β-glucan-FITC staining. The rank order for inhibiting activity for both experiments was SZP>laminarin>MP β-glucan. However, CM β-glucan (carboxymethyl β-glucan from yeast), barley β-glucan, and lentinan inhibited laminarin-FITC staining more efficiently than they inhibited SZP-FITC staining.

[3] = molecular target: T1, CR3; experiment: Neutrophil fluorescence staining by FITC-labeled polysaccharides (flow cytometry); type: binding; conditions: neutrophils
Source text: Fluorescence intensity values obtained with individual polysaccharide-FITC conjugates cannot be compared, since the molar ratio of FITC to polysaccharide is likely to differ and cannot be readily calculated.

[4] = test system: Human NK cells; experiment: β-glucan and CR3-dependent stimulation of NK cell cytokine secretion, ELISA (FIG. 13); type: cell-based; conditions: 18 hours at 37° C.; particulate yeast β-glucan and grifolan 2 g/ml, MP β-glucan and SZP 2.0 μg/ml
Description: The function of NK cells in mediating host defense includes both direct cytotoxicity of tumor cells and the secretion of cytokines such as TNF-α and IFN-γ that can potentially regulate immune responses and recruit tumoricidal macrophages. […] Human NK cells were cultured with either particulate yeast β-glucan or soluble CR3-binding polysaccharides for 18 hours at 37° C. Culture supernatants were then analyzed for TNF-α by ELISA. […] Anti-CR3 blocks both β-glucan binding to CR3, as well as the binding of primed CR3 to iC3b on the EC3bi target cells.

[5] = test system: advanced low-grade or slow-growing NHL; conditions: patients who completed treatment; cited from earlier work
[6] = test system: MMT mammary carcinoma; experiment: β-glucan therapy of MMT mammary carcinoma in normal and C3-deficient 129/J mice (FIG. 8); type: in vivo; conditions: daily i.v. therapy
Source text: The requirement for C3 in β-glucan therapy was confirmed in experiments with C3-deficient 129/J mice implanted with the MMT mammary carcinoma. Twelve normal (C3+/+) and 12 C3-deficient (C3−/−) 129/J mice were implanted with the MMT mammary carcinoma tumor cell line and palpable tumors were allowed to form before beginning daily i.v. therapy of groups of 6 mice each with PBS or β-glucan. A similar protocol was used with normal (CD+/+) and CR3-deficient (CD11b-knockout; Cd11b−/−) BALB/c mice implanted with Ptas64 mammary tumors.

[7] = test system: EL-4 lymphoma; experiment: mAb and/or β-glucan therapy of hepatic EL-4 lymphoma (FIG. 9, FIG. 15); type: in vivo, C57B1/6 mice; conditions: therapy from day 10 for 2 weeks; SZP β-glucan 100 μl of 4 mg/ml i.v. daily; 3F8 100 μl of 2 mg/ml i.v. every 3rd day
Description: Mice were injected with the EL-4 cells i.v., a protocol known to result in liver metastases. Ten days later, the mice were given daily i.v. doses of β-glucan alone, 3F8 mAb to GD2 ganglioside (a prominent tumor antigen of EL-4 cells), or 3-glucan plus 3F8 mAb. The 3F8 mAb is IgG3 and is a potent activator of complement and also mediates ADCC. […] As expected, the β-glucan had little effect on its own since the tumors bore little or no iC3b.
The C57B1/6 lymphoma EL-4, that highly expresses membrane GD2 ganglioside, was provided by Dr. Nai-Kong V. Cheung. Normal C57B1/6 mice were injected with 3×10^5 EL-4 cells i.v. to generate liver tumors (Zhang, H., et al., Cancer Res., 58: 2844-2849 (1998)). Ten days later, 4 groups of 6 mice were given i.v. 100 μl doses of: a) PBS (control group), b) SZP β-glucan (4 mg/ml) repeated daily, c) 3F8 mAb to GD2 ganglioside (2 mg/ml) repeated every 3rd day, or d) both daily β-glucan and 3F8 mAb every 3rd day. After 2 weeks of therapy, the mice were sacrificed and their livers were removed and weighed in comparison to the livers of a group of normal tumor-free mice. The net weight of liver tumors was calculated by subtracting the weight of a normal liver (1.0 g) from the weights of the livers from tumor-bearing mice. […]

[8] = test system: RMA-S-MUC1 tumor cells; experiment: s.c. RMA-S-MUC1 tumor therapy with 14.G2a or BCP8 mAb and/or NSG β-glucan (FIG. 17B-C, 18B-C); type: in vivo, C57B1/6 mice; conditions: 2-week therapy, observed for a 4-month period
Description: Three different tumor therapy protocols are shown. FIG. 17A is a graph showing Pta64 therapy with 11CI anti-MMTV mAb combined with glucan. FIG. 17B is a graph showing RMA-S-MUC1 therapy with i.v. 14 G2a anti-GD2 mab combined with glucan. FIG. 17C is a graph showing RMA-S-MUC1 therapy with i.v. BCP8 anti-MUC1 mab combined with glucan. After tumor cells were implanted, small tumors were allowed to form over 5-9 days before immunotherapy was carried out for a total period of 14 days. […] In graphs B and C, C57B1/6 mice were implanted s.c. with RMA-S-MUC1 tumor cells and then 5 days later treated with either 14.G2a anti-GD2 ganglioside and/or NSG β-glucan (300 μg per day) or BCP8 IgG2b […] and/or NSG β-glucan ([…] per day). […] Mean values and standard errors (SE) of the mean are shown.
(§1) RMA-S cells transfected with human MUC1 were also provided by Dr. Finn (Soares, M. M., et al., J. Immunol., 166: 6555-6563 (2001)), and 1×10^6 cell were implanted s.c. in C57B1/6 mice in or near a mammary fat pad. […]

[9] = test system: iC3b-opsonized breast tumor cells; experiment: β-glucan priming of murine neutrophil CR3 for cytotoxicity (FIG. 4); type: cell-based; conditions: normal murine neutrophils
Description: The effect of β glucan priming of murine neutrophil CR3 on subsequent cytotoxic triggering by iC3b-opsonized breast tumor cells is shown in FIG. 4. […] This activity disappears, however, when antibody to the CD11b (murineCR3 equivalent) is added, interfering with the receptor's ability to bind to iC3b. […] Adding antibody against CD11b had little effect on CD11b-deficient neutrophils, as expected.

[10] = test system: Lewis Lung carcinoma tumor cells transfected with human MUC1 (LL/2-MUC1); experiment: s.c. LL/2-MUC1 Lewis lung carcinoma therapy in C3-deficient versus wild-type mice (FIG. 21, 22); type: in vivo, C57B1/6 mice
Description: C3-deficient (C3^−/−) mice and their wild-type littermates on a C57BL/6 background were implanted s.c. with 1×10^6 Lewis Lung carcinoma tumor cells transfected with human MUC1 (LL/2-MUC1). After allowing 7 days for development of small tumors, mice were treated with BCP8 IgG2b anti-MUC1 mAb (200 μg every 3rd day) and/or NSG β-glucan (400 μg daily) for a total therapy period of 3 weeks. […] Mean values±SE of the mean are shown.
Lewis lung carcinoma cells (LL/2, CRL-1642) originally derived from C57B1/6 mice were obtained from the ATCC and transfected with a plasmid containing cDNA for human MUC1 that was provided by Dr. Olivera Finn (Soares, M. M., et al., J. Immunol., 166: 6555-6563, 2001.). A LL/2 line expressing a uniformly high surface density of MUC1 was selected by FACS sorting of cells stained with BCP8-FITC mAb (MoFlo High Speed Cell Sorter, Dako-Cytomation, Fort Collins, Colo.). A further selection was made by passaging the cell line two times in C57B1/6 mice given the cells s.c. A tumor line was selected that both expressed uniformly high levels of surface MUC1 and was capable of generating s.c. tumors in C57B1/6 injected with as few as 5×10^5 cells. Therapy of mice bearing these s.c. tumors was initiated after 7 days when tumors were only 1-2 mm in diameter. Four groups of six C3-deficient or their wild-type littermate C57B1/6 mice were treated with: a) i.v. PBS every 3rd day (control); b) 400 μg of NSG β-glucan given i.v. daily; c) 200 μg of BCP8 anti-MUC1 mAb given i.v. every 3rd day; d) combined therapy with BCP8 mAb and NSG β-glucan. Therapy was given for 3 weeks with measurement of tumor diameters every 3rd day, and mice were sacrificed when tumors reached 15 mm diameter. Mice were observed over a total period of 90 days for tumor-free survival.

[11] = test system: RMA-S-MUC1 tumor cells; experiment: s.c. RMA-S-MUC1 tumor therapy in CR3-deficient versus wild-type mice (FIG. 19, 20); type: in vivo, C57B1/6 mice
Description: FIGS. 19A-19B are graphs showing the enhancement of tumor regression mediated by NSG β-glucan requires leukocyte CR3 and fails in CR3-deficient (CD11b^−/−) mice. FIG. 19A is a graph showing the tumor diameter vs. therapy of wild type mice. FIG. 19B is a graph showing the tumor diameter vs. therapy of CR3 deficient mice. […] Tumor measurements were made at the indicated times (FIGS. 19A-19B) and then survival was monitored (FIGS. 20A-20B). Mice received 14.G2a anti-GD2 ganglioside mAb (100 μg every 3rd day) and/or NSG β-glucan (400 μg daily). There was no difference in the rate of tumor regression produced by mAb therapy alone in the CR3-deficient versus wild-type mice and there was no β-glucan enhancement of mAb-mediated tumor regression in the CR3-deficient mice. […] Mean values±SE of the mean are shown.
as §1

[12] = test system: RMA-S lymphoma; experiment: Survival of mice with RMA-S hepatic lymphomas treated with 14.G2a and/or β-glucan (FIG. 16); type: in vivo, C57B1/6 mice; conditions: therapy from day 5 for 3 weeks
Description: The C57B1/6 lymphoma EL-4, that highly expresses membrane GD2 ganglioside, was provided by Dr. Nai-Kong V. Cheung. Normal C57B1/6 mice were injected with 3×10^5 EL-4 cells i.v. to generate liver tumors (Zhang, H., et al., Cancer Res., 58: 2844-2849 (1998)). Ten days later, 4 groups of 6 mice were given i.v. 100 μl doses of: a) PBS (control group), b) SZP β-glucan (4 mg/ml) repeated daily, c) 3F8 mAb to GD2 ganglioside (2 mg/ml) repeated every 3rd day, or d) both daily β-glucan and 3F8 mAb every 3rd day. After 2 weeks of therapy, the mice were sacrificed and their livers were removed and weighed in comparison to the livers of a group of normal tumor-free mice. The net weight of liver tumors was calculated by subtracting the weight of a normal liver (1.0 g) from the weights of the livers from tumor-bearing mice. A similar liver tumor model was carried out using the C57B1/6 lymphoma RMA-S that similarly expresses GD2 ganglioside but is defective in peptide loading of MHC class I (kindly provided by Dr. Olivera J. Finn, Pittsburgh Cancer Institute, Pittsburgh, Pa.) in combination with 14.G2a mAb to GD2 ganglioside (100 μg, given i.v. every 3rd day). Mice were similarly divided into 4 groups that were treated beginning 5 days after i.v. injection of 3×10^5 cells with: 1) i.v. PBS (control), 2) i.v. NSG β-glucan (400 μg per day), 3) 14.G2a mAb, or 4) both NSG β-glucan and 14.G2a mAb. […]

affinity for CR3 (in words) [2]: relatively low affinity for CR3
Substance: (1,3),(1,4)-β-D-glucan [barley β-glucan]
tumor growth (tumor size as percentage of day zero), in words [1]: neither β-glucan or mAb alone showed much effect

Polysaccharide-FITC Concentration Required for Maximum Specific Fluorescence Staining (Saturation of Receptor Binding Sites) [3]: No specific staining
Specific Fluorescence Mean Channel at Saturation (Total-Nonspecific Fluorescence Obtained in the Presence of Excess of Unlabeled Polysaccharide) [3]: 0
Substance: Dextran-FITC

Substance: grifolan
NK cell cytokine secretion in the absence of target cells, in words [4]: secretion of both TNF-α and IL-6

Substance: rituximab: monoclonal antibody used to treat a type of non-Hodkin's lymphoma
patients having complete remission [5]: 6%
patients whose tumors shrunk by at least one half [5]: 48%

Substance: β-glucan
tumor reduction ([6]; C3-deficient (C3−/−) 129/J mice): no significant tumor reduction
tumor reduction ([6]; normal (C3+/+) 129/J mice): 79%
reduction in liver tumor net weight compared to untreated controls [7]: 25.6%
survival [8]: 20%
cytotoxicity towards iC3b-opsonized breast tumor cells, in words [9]: high level of cytotoxicity
regression and survival, in words ([10]; C3-deficient mice): neither mAb nor β-glucan, separately or combined, elicited any regression
survival, in words ([10]; wild-type mice): survival advantage compared to mAb alone
tumor regression, in words ([10]; wild-type mice, BCP8 200 μg every 3rd day, NSG β-glucan 400 μg daily, 3 weeks): lower level of regression
tumor regression, in words ([11]; CR3-deficient mice): no regression
mice remaining tumor-free (survival) ([11]; wild-type mice, 14.G2a 100 μg every 3rd day, NSG β-glucan 400 μg daily, 21 days): no survivors
survival, in words [12]: no therapeutic benefit
